Results: US8940774B2, “Tris-Quaternary Ammonium Salts and Methods for Modulating Neuronal Nicotinic Acetylcholine Receptors” (University of Kentucky Research Foundation, priority 2005, dated 2015)

Experiments:
[1] = biological target: T1, α7-type neuronal nicotinic acetylcholine receptors (Rattus norvegicus, UniProt Q05941); experiment: Inhibition of [3H]Methyllycaconitine (MLA) binding assay, rat brain membranes; details: % inhibition at 100 nM concentration of analog; rat brain membranes; 2.5 nM [3H]MLA; read-out: Inhibition of [3H]MLA binding
T1 construct: from tissue; host or cells: rat brain membranes (whole brain without cortex, striatum and cerebellum)
T1 sequence (Q05941 23-502): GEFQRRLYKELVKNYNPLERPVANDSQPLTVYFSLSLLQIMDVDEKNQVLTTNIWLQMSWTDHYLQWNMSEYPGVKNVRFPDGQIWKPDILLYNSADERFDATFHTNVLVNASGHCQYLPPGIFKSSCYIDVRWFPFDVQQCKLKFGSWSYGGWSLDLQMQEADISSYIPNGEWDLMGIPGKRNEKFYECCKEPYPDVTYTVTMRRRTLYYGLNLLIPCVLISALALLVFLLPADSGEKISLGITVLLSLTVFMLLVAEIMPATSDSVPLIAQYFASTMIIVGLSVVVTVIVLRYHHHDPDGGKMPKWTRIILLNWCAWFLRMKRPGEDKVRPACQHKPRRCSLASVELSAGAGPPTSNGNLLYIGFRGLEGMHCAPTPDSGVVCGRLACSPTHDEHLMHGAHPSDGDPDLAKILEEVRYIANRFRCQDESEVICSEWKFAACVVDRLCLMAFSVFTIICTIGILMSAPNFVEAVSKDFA
Description: Rat brain was dissected into the whole brain tissue without cortex, striatum and cerebellum and was frozen in liquid nitrogen and stored at −70° C. until use. The brain tissue was homogenized with a Tekmar Polytron (setting 40) in 20 volumes of ice-cold hypotonic buffer (2 mM HEPES, 14.4 mM NaCl, 0.15 mM KCl, 0.2 mM CaCl2 and 0.1 mM MgSO4, pH=7.5). The homogenate was incubated at 37° C. for 10 minutes and centrifuged at 25,000 g for 15 minutes at […] The pellet was washed 3 times more by resuspension in 20 volumes of the same buffer and centrifugation at the above parameters. The final pellet was stored at −20° C. under 4.6 mL of the incubation buffer and was suspended just before the incubation with radioligand.
The binding of [^3H]MLA to probe α7-type neuronal nicotinic acetylcholine receptors was measured using a modification of the method of Davies at al., “Characterisation of the binding of [^3H]methyllycaconitine (MLA): a radioligand for labelling α7-type neuronal nicotinic acetylcholine receptors,” Neuropharmacology, 38, 679-690 (1999). [^3H]MLA (25.4 Ci/mmol) was purchased from Tocris Cookson Ltd., Bristol, U.K. Binding was performed in duplicate, in a final volume of 250 μL of the incubation medium, containing 20 mM HEPES, 144 mM NaCl, 1.5 mM KCl, 2 mM CaCl2, 1 mM MgSO4 and 0.05% BSA, pH=7.5. Reaction was initiated by the addition of 100 μL of membrane suspension to the samples containing a desired concentration of test compounds and […] [^3H]MLA (final concentration) and incubated for 2 hours it room temperature. Total binding was measured in the absence of unlabelled ligand, and nonspecific binding was determined by the presence of 1 μM unlabelled MLA. The binding reaction was terminated by dilution of samples with 3 mL of ice-cold incubation buffer followed by immediate filtration through glass fiber filters (S&S, grade #32, presoaked in 0.5% polyethylenimine) using a Brandel harvester system. Filters were rinsed three times with 3 mL of ice-cold buffer, transferred to scintillation vials and 4 mL of scintillation cocktail was added. Protein was measured using the Bradford dye-binding procedure with bovine serum albumin as the standard.
The tris-quaternary ammonium salts were evaluated for their ability to displace [^3H]MLA binding from rat brain membranes.
(§1) Data are % inhibition at 100 nM concentration of analog for at least 1-3 independent experiments. Specific binding in the [^3H]NIC binding assay is calculated at the difference between the total binding of [^3H]NIC and nonspecific binding in the presence of 10 μM cold nicotine. Specific binding for the [^3H]MLA binding assay is calculated as the difference between the total binding of 2.5 nM [^3H]MLA to the receptors alone and its nonspecific binding in the presence of 1 μM cold MLA. Analog-induced inhibition of nicotine-evoked [^3H]DA release is calculated as a percent of that in the absence of analog.

[2] = test system: NIC-evoked [3H]DA release from rat striatal slices; experiment: Nicotine-evoked [3H]dopamine release assay, superfused rat striatal slices; assay type: cell-based; details: 100 nM analog superfused 60 minutes prior to NIC (10 μM), percent of that in the absence of analog
Description: Rat striatal slices (500 μm thickness, 6-8 mg wet weight) were incubated for 30 minutes in Krebs buffer (118 mM NaCl, 4.7 mM KCl, 1.2 mM MgCl2, 1.0 mM NaH2PO4, 1.3 mM CaCl2, 11.1 mM glucose, 25 mM NaHCO3, 0.11 mM L-ascorbic acid and 0.004 mM disodium EDTA; pH 7.4, and saturated with 95% O2/5% CO2) in a metabolic shaker at 34° C. Slices were rinsed with 15 mL of fresh buffer and incubated for an additional 30 minutes in fresh buffer containing 0.1 μM [^3H]dopamine (DA; 6 slices/3 mL). Subsequently, slices were rinsed with 15 mL of fresh buffer and transferred to a glass superfusion chamber. Slices were superfused (1.0 mL/min) for 60 minutes with Krebs buffer containing nomifensine (10 μM) and pargyline (10 μM) and maintained at 34° C., pH 7.4 with continual aeration (95% O2/5% CO2). Two five minute samples (5 mL each) were collected to determine basal outflow of [^3H]DA. Analogs were added to the superfusion buffer after the collection of the second sample and remained in the buffer until 12 consecutive five minute samples were collected. Subsequently, S-(−)-nicotine (10 μM) was added to the buffer and an additional 12 consecutive five minute samples were collected. At the end of the experiment, each slice was solubilized and the [^3H] content of the tissue determined.
Radioactivity in the superfusate and tissue samples were determined by liquid scintillation spectroscopy. Fractional release for tritium collected in each sample was divided by the total tritium present at the time of sample collection and was expressed as a percentage of total tritium. Basal [^3H] outflow was calculated from the average of the tritium collected in the two five-minute samples just before addition of the analog. The sum of the increase in collected tritium resulting from either exposure to the test compound or exposure to S-(−)-nicotine in the absence cod presence of the test compound equaled total [^3H] overflow. [^3H] Overflow was calculated by subtracting the [^3H] outflow during an equivalent period of prestimulation from the values in samples collected during and after drug exposure. Inasmuch as the radiolabelled compounds were not separated and identified, the tritium in the superfusate is referred to as either [^3H] outflow or [^3H] overflow, rather than [^3H]DA. [^3H] Overflow primarily represents [^3H]DA in the presence of nomifesine and pargyline in the superfusion buffer. […]
Analogs were also evaluated for their ability to inhibit NIC evoked [^3H]DA release. In these experiments, the striatal slices were superfused for 60 minutes with 100 nM concentration of the analogs prior to NIC (10 μM) exposure. Antagonist activity was evaluated by comparing the NIC-evoked [^3H] overflow in the absence and presence of the analogs. The relative order of potency of the analogs for inhibition of NIC-evoked [^3H]DA release from rat striatal slices is illustrated in Table 1.
as §1

SMILES | inhibition at 0.1 µM [1] | inhibition at 0.1 µM [2]
CCCCc1ccc[n+](CCCC#Cc2cc(C#CCCC[n+]3cccc(CCCC)c3)cc(C#CCCC[n+]3cccc(CCCC)c3)c2)c1 [GZ551A, 1,3,5-tris-[5-(3-butyl-pyridinium)-pent-1-ynyl]-benzene tribromide] | 30 ± 2% | 52%
CN1CCC[C@H]1c1ccc[n+](CCCC#Cc2cc(C#CCCC[n+]3cccc([C@@H]4CCCN4C)c3)cc(C#CCCC[n+]3cccc([C@@H]4CCCN4C)c3)c2)c1 [GZ551B, 1,3,5-tris-{5-[3-(1-methyl-2-S-pyrrolidinyl)pyridinium]-pent-1-ynyl}-benzene tribromide] | 4.2 ± 2.2% | 63%
CN1CCC[C@H]1c1ccc[n+](CCCCCc2cc(CCCCC[n+]3cccc([C@@H]4CCCN4C)c3)cc(CCCCC[n+]3cccc([C@@H]4CCCN4C)c3)c2)c1 [GZ558C, 1,3,5-tris-{5-[3-(1-methyl-2-S-pyrrolidinyl)pyridinium]-pentyl}-benzene tribromide] | 7.9 ± 7.1% | 35%
